From patent US20230129485A1, “SYSTEM AND METHOD FOR DETERMINING MATERIAL PROPERTIES OF MOLECULAR SYSTEMS FROM AN AB-INITIO PARAMETERIZED FORCE-FIELD” (InterX, Inc., priority 2021, published 2023)

What was measured:
[1] = Free energy of hydration by COSMO implicit solvent model (MolPro ver. 2012); conditions: absolute error vs Exp (hydration)
Description: (§1) Due to unavailability of free energy data for the original COSMO model, the free energies of solvation for the molecule dataset are calculated using MolPro ver. […] The comparisons to other implicit solvent models such as SMD, PCM and COSMO-RS are limited to the overlap of the molecules computed using QM-parameterized force field model. The free energies of hydration as predicted by these implicit solvent models (SMD, PCM) were received.

[2] = Free energy of hydration predicted with the QM-parameterized force field model (ARROW FF), classical MD and PIMD simulation in a water box; conditions: for water Arrow MD Error / water Arrow PIMD8 Error: Table 3; for water Arrow MD Error: absolute error of MD hydration free energy vs experiment; for water Arrow PIMD8 Error: absolute error of PIMD8 hydration free energy vs experiment; for Arrow PIMD8 Error: absolute error vs Exp (hydration)
Text: For example, the example QM-parameterized force-field molecular simulation process 400 can use Bennett Acceptance Ratio (BAR) to compute the free energy of hydration/solvation of the molecule in water or any other solvent. In some implementations, the analysis of the molecular dynamics simulations includes analysis, predication, and visualization of ensemble properties of atoms/molecules from atomic and molecular trajectories using the optimized parameters of the QM-parameterized force field model (i.e., the quantum mechanics rule-based reasoning technique) and the QM-parameterized force field model.
In some simulations of the QM-parameterized force field molecular simulation process, the molecules were placed in a water or cyclohexane box of size 32×32×32 Å3. Particle-Mesh Ewald (PME) algorithm was used to compute the electrostatic interactions. A 32×32×32 grid mesh and 5th power spline interpolation order can be used to compute the inverse PME sum. 9 Å cutoffs were used to compute the direct PME sum as well as the exchange and dispersion interactions. Bulk corrections were applied to account for distance cut-off of dispersion interactions. Solvation free energies were computed by decoupling the interactions between the solute and the solvent molecules. Electrostatic, exchange-repulsion and dispersion interactions were switched off simultaneously using a lambda-dependent scaling (a scaling factor power=2 was used) and a soft-coring algorithm (maximal soft-coring radius=1.5 Å, soft-coring radius scaling factor power=1). 15 lambda points unequally spaced (X=0, 0.05, 0.1, 0.2, 0.3, 0.4, 0.5, 0.6, 0.7, 0.75, 0.8, 0.85, 0.9, 0.95, 1.0) were used to decouple the solute-solvent intermolecular interactions.
In some simulations of the QM-parameterized force field molecular simulation process, energy minimization (10,000 steps) using the steepest descent algorithm was initially performed on all the simulation systems. This was followed by a 50 ps equilibration and 1 ns production runs in the isothermal-isobaric ensemble (NPT). […] Pressure was maintained at 1 atm using a MTTK barostat (relaxation time=5 ps). A Multiple Time Step (MTS) algorithm was used to integrate the equations of motion both for the classical and path-integral runs. […] The calculations were performed using the QM-parameterized force field model.
Using the QM-parameterized force field model, the QM-parameterized force field device can compute or predict the solvation free energies using both the Bennett acceptance ratio (BAR) and thermodynamic integration (TI) method with <dH/dλ> values interpolated by cubic splines. […] FIG. 7A illustrates a <dH/dλ> dependence for desolvation of Anthracene in water. FIG. 7B illustrates accumulated statistical errors for TI calculations of AG desolvation of Anthracene in water.

[3] = Free energy of hydration by COSMO-RS
Description: as §1

[4] = Free energy of hydration by Polarizable Continuum Model (PCM); conditions: absolute error vs Exp (hydration)
Description: as §1

[5] = Free energy of hydration by Solvation Model Dielectric (SMD) implicit solvent model; conditions: absolute error vs Exp (hydration)
Description: as §1

[6] = implicit solvent model, values received; cited from earlier work
[7] = implicit solvent model, values received; cited from earlier work; remark: listed apart in the source
[8] = Table 3; free energy of hydration, experimental; cited from earlier work
[9] = CHEX/H2O partition coefficient (log D) predicted with the QM-parameterized force field model (ARROW FF)
Text: In some simulations, the example QM-parameterized force-field molecular simulation process includes using the functional form of the bonded interactions, with force constants and equilibrium values fitted to QM energies at the MP2/aug-cc-pVTZ level of theory. In some simulations, solvents of water and cyclohexane are selected. Cyclohexane (CHEX) is nonpolar and equilibrates relatively quickly. Reliable experimental data for both CHEX solvation free energies, as well as for the CHEX/H2O partition coefficients are used in these simulations.
In some example simulations, solutes containing neutral chemical functional groups, for example carboxylic acids, alkanes, alkenes, aromatics, aldehydes, ketones, alcohols, amides, esters, thiols, sulfides, disulfides and heterocycles, are used. The simulations were performed independently by four groups using their own respective computational resources and architectures, and then averaged. FIGS. 9A-9C show solvation and hydration free energies predictions of various solutes, using the QM-parameterized force field model, in some embodiments.
The straight line is a line of agreement between experimental and simulated/predicted values, and the gray bar is the range or chemical accuracy. […] The molecules here are a subset of those in a) because only those with experimental values for CHEX solvation can be included.

| SMILES | COSMO/Molpro Error [1] | water Arrow MD Error [2] | water Arrow PIMD8 Error [2] | Arrow PIMD8 Error [2] | COSMO-RS error [3] | PCM Error [4] | SMD Error [5] | estimated statistical error of computed free energy of solvation ([2]; 1 ns trajectory, TI, FIG. 7B, in water) | SMD free energy of hydration [6] | PCM free energy of hydration [7] | water Exp (hydration) [8] | log D Arrow MD Error [9] | log D Arrow PIMD Error [9] | logD Arrow MD Error [9] | logD Arrow PIMD Error [9] |
| --- | --- | --- | --- | --- | --- | --- | --- | --- | --- | --- | --- | --- | --- | --- | --- |
| CC(C)(C)O [2-Methyl-2-Propanol] | 1.31 kcal/mol | 0.85 kcal/mol | 0.35 kcal/mol | 0.35 kcal/mol | 0.10 kcal/mol | 1.51 kcal/mol | 0.71 kcal/mol |  |  |  |  |  |  |  |  |
| c1ccc2cc3ccccc3cc2c1 [Anthracene] | 1.77 kcal/mol | 0.32 kcal/mol | 0.07 kcal/mol | 0.07 kcal/mol | 0.17 kcal/mol | 1.05 kcal/mol | 1.75 kcal/mol | about 0.2 kcal/mol | -2.20 kcal/mol | -2.90 kcal/mol | -3.95 kcal/mol |  |  |  |  |
| c1ccc(-c2ccccc2)cc1 [Biphenyl] | 2.64 kcal/mol | 1.17 kcal/mol | 0.13 kcal/mol | 0.13 kcal/mol | 0.31 kcal/mol |  |  |  |  |  | -2.66 kcal/mol |  |  |  |  |
| C1CCCCCC1 [Cycloheptane] | 1.32 kcal/mol | 0.67 kcal/mol | 0.12 kcal/mol | 0.12 kcal/mol |  |  |  |  |  |  | 0.79 kcal/mol |  |  |  |  |
| OC1CCCCC1 [Cyclohexanol] | 1.03 kcal/mol | 1.09 kcal/mol | 0.34 kcal/mol | 0.34 kcal/mol | 0.33 kcal/mol |  |  |  |  |  | -5.47 kcal/mol |  |  |  |  |
| C1CCCC1 [Cyclopentane] |  | 0.71 kcal/mol | 0.12 kcal/mol |  |  |  |  |  |  |  | 1.20 kcal/mol |  |  |  |  |
| CCSCC [DiEthylSulfide] | 3.37 kcal/mol | 0.89 kcal/mol | 0.12 kcal/mol | 0.12 kcal/mol |  | 0.57 kcal/mol | 1.23 kcal/mol |  | -0.20 kcal/mol | -2.00 kcal/mol | -1.43 kcal/mol |  |  |  |  |
| CC(=O)N(C)C [DiMethylAcetamide] | 2.31 kcal/mol |  |  |  | 0.37 kcal/mol |  |  |  |  |  |  |  |  |  |  |
| CCOCC [DiethylEther] | 2.00 kcal/mol | 0.95 kcal/mol | 0.10 kcal/mol | 0.10 kcal/mol |  | 0.15 kcal/mol | 0.55 kcal/mol |  | -1.20 kcal/mol | -1.90 kcal/mol | -1.75 kcal/mol |  |  |  |  |
| CCS [EthaneThiol] | 2.70 kcal/mol | 0.94 kcal/mol | 0.43 kcal/mol | 0.43 kcal/mol |  | 0.86 kcal/mol | 0.24 kcal/mol |  | -1.00 kcal/mol | -2.10 kcal/mol | -1.24 kcal/mol |  |  |  |  |
| CCCOC [MethylPropylEther] | 3.19 kcal/mol | 0.66 kcal/mol | 0.00 kcal/mol | 0.00 kcal/mol |  | 0.14 kcal/mol | 1.16 kcal/mol |  | -0.50 kcal/mol | -1.80 kcal/mol | -1.66 kcal/mol |  |  |  |  |
| CC(C)(C)C [NeoPentane] | 3.25 kcal/mol | 1.05 kcal/mol | 0.12 kcal/mol | 0.12 kcal/mol |  | 2.80 kcal/mol | 0.30 kcal/mol |  | 2.20 kcal/mol | -0.30 kcal/mol | 2.50 kcal/mol |  |  |  |  |
| CN [methylamine] | 1.24 kcal/mol | 0.49 kcal/mol | 0.16 kcal/mol | 0.16 kcal/mol | 0.26 kcal/mol |  |  |  |  |  | -4.55 kcal/mol |  |  |  |  |
| Cc1ccc(O)cc1 [p-cresol] |  |  |  |  |  |  |  |  |  |  |  | 0.73 | 0.11 | 0.73 | 0.11 |
| c1ccc2c(c1)ccc1ccccc12 [phenanthrene] | 1.97 kcal/mol | 0.35 kcal/mol | 0.09 kcal/mol | 0.09 kcal/mol |  |  |  |  |  |  | -3.88 kcal/mol |  |  |  |  |
| c1cc2ccc3cccc4ccc(c1)c2c34 [pyrene] | 1.32 kcal/mol | 0.45 kcal/mol | 0.01 kcal/mol | 0.01 kcal/mol |  |  |  |  |  |  | -4.52 kcal/mol |  |  |  |  |
| c1ccc2cc3cc4ccccc4cc3cc2c1 [tetracene] | 1.43 kcal/mol | 0.39 kcal/mol | 0.44 kcal/mol | 0.44 kcal/mol |  |  |  |  |  |  | -5.5 kcal/mol |  |  |  |  |
